Results as given in ChEMBL document CHEMBL3526148, “Cerebrospinal fluid can be used as a surrogate to assess brain exposures of breast cancer resistance protein and P-glycoprotein substrates” (Drug Metab Dispos, 2012).

Assays:
Format in all cases: ADME, cell-based
[1] = target: T1, Broad substrate specificity ATP-binding cassette transporter ABCG2 (Homo sapiens, UniProt Q9UNQ0); assay: Inhibition of BCRP-mediated [3H]estrone-3-sulfate transport in human Caco2 cells at 3 uM after 30 mins; details: caco-2, 0.5 h
T1 sequence (Q9UNQ0 whole entry): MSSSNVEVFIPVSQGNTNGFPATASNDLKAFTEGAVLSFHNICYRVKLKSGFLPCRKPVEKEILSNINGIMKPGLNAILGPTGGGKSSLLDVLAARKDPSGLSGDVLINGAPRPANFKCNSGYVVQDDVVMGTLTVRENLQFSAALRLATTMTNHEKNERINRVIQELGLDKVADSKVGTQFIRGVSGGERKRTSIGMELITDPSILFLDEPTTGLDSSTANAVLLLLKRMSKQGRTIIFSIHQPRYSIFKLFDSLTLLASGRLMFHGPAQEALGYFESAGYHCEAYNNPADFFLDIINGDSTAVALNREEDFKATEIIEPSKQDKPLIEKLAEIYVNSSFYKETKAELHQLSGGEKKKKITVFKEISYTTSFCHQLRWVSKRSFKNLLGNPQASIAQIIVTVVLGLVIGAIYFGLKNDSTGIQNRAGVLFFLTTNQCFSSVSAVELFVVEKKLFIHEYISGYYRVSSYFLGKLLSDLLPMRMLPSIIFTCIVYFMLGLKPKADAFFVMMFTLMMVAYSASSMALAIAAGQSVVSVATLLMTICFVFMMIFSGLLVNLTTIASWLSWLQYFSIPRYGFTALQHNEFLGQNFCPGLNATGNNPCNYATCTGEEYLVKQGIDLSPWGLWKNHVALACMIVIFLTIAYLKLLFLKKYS

[2] = Inhibition of P-gp-mediated [3H]-digoxin transport in human Caco2 cells at 3 uM after 30 mins; details: caco-2, 0.5 h
[3] = Apparent permeability from basolateral to apical side in human Caco2 cells at 5 uM after 2 hrs; details: Caco-2
[4] = Apparent permeability from apical to basolateral side in human Caco2 cells at 5 uM after 2 hrs; details: Caco-2
[5] = Inhibition of P-gp-mediated [3H]-digoxin transport in human Caco2 cells at 10 to 50 uM after 30 mins; details: caco-2, 0.5 h
[6] = target: T1, Broad substrate specificity ATP-binding cassette transporter ABCG2; assay: Inhibition of BCRP-mediated [3H]estrone-3-sulfate transport in human Caco2 cells at 1 uM after 30 mins; details: caco-2, 0.5 h
[7] = Inhibition of P-gp-mediated [3H]-digoxin transport in human Caco2 cells at 1 uM after 30 mins; details: caco-2, 0.5 h

COc1cc2c(cc1OC)CN(CCc1ccc(NC(=O)c3cccc4c(=O)c5cccc(OC)c5[nH]c34)cc1)CC2
inhibition (INH) [1]: Active
inhibition (INH) [2]: Active

COc1ccc2c3c([nH]c2c1)[C@H](CC(C)C)N1C(=O)[C@H](CCC(=O)OC(C)(C)C)NC(=O)[C@@H]1C3
inhibition (INH) [2]: Not Active

O=C1CN(/N=C/c2ccc(-c3ccc([N+](=O)[O-])cc3)o2)C(O)=N1 [DANTROLENE]
Papp B→A at 2 h, 5 µM [3]: 9.8 ×10⁻⁶ cm/s
Papp A→B at 2 h, 5 µM [4]: 2 ×10⁻⁶ cm/s
inhibition (INH) [5]: Not Active

C/C=C/C[C@@H](C)C(=O)[C@H]1C(=O)N[C@@H](C(C)C)C(=O)N(C)CC(=O)N(C)[C@@H](CC(C)C)C(=O)N[C@@H](C(C)C)C(=O)N(C)[C@@H](CC(C)C)C(=O)N[C@@H](C)C(=O)N[C@H](C)C(=O)N(C)[C@@H](CC(C)C)C(=O)N(C)[C@@H](CC(C)C)C(=O)N(C)[C@@H](C(C)C)C(=O)N1C [VALSPODAR]
inhibition (INH) [6]: Not Active
inhibition (INH) [7]: Active
